Laboratory results taken from ChEMBL document CHEMBL1128091, “Ly316340: A potent HIV-1 protease inhibitor containing a high affinity octahydrothienopyridine hydroxyethylamine isostere” (Bioorg Med Chem Lett, 1995).

Columns and labels:
[1] = Bioavailability was evaluated in rats at a dose of 20 mg/kg, under fed state; format: ADME, organism-based; settings: rat, in vivo
[2] = system: Rattus norvegicus; test: (§1) Cmax value was evaluated in rats at a dose of 20 mg/kg; format: ADME, organism-based; set-up: dose 20 mg/kg; settings: in vivo
[3] = as §1; format: ADME, organism-based; set-up: dose 20 mg/kg; settings: rat, in vivo
[4] = Bioavailability was evaluated in rats at a dose of 20 mg/kg, under fasting state; format: ADME, organism-based; settings: rat, in vivo
[5] = biological target: Human immunodeficiency virus type 1 protease (Human immunodeficiency virus 1, UniProt Q72874); test: Inhibitory concentration required against HIV-1 protease
[6] = system: CEM-SS; test: (§2) Inhibitory concentration required for antiviral activity against HXB-2 infected CEM-SS cells; format: functional; settings: Homo sapiens
[7] = system: CEM-SS; test: as §2; format: functional, cell-based; settings: Homo sapiens

| SMILES | IC50 [5] [nM] | IC95 [6] [nM] | IC50 [7] [nM] | other results |
| --- | --- | --- | --- | --- |
| CS(=O)(=O)O.Cc1c(O)cccc1C(=O)N[C@@H](CSc1ccccc1)[C@H](O)CN1C[C@H]2CCS[C@H]2C[C@H]1C(=O)NC(C)(C)C | – | – | – | bioavailability [1]: 19%; Cmax [2]: 1000 nM; Cmax [3]: 1400 nM; bioavailability [4]: 22% |
| CC(C)(C)NC(=O)[C@@H]1C[C@@H]2CCCC[C@@H]2CN1C[C@@H](O)[C@H](Cc1ccccc1)NC(=O)OCc1ccccc1 | 127 | – | – | – |
| Cc1c(O)cccc1C(=O)N[C@@H](CSc1ccccc1)[C@H](O)CN1C[C@H]2CCS[C@H]2C[C@H]1C(=O)NC(C)(C)C | 0.3 | 18 | 5.1 | – |
| CC(C)(C)NC(=O)[C@@H]1C[C@@H]2SCC[C@@H]2CN1C[C@@H](O)[C@H](Cc1ccccc1)NC(=O)OCc1ccccc1 | 6.6 | – | – | – |
| Cc1c(O)cccc1C(=O)N[C@@H](Cc1ccccc1)[C@H](O)CN1C[C@H]2CCS[C@H]2C[C@H]1C(=O)NC(C)(C)C | 0.5 | 1360 | 24 | – |
| CC(C)(C)NC(=O)[C@@H]1C[C@@H]2CCCC[C@@H]2CN1C[C@@H](O)[C@H](Cc1ccccc1)NC(=O)[C@H](CC(N)=O)NC(=O)c1ccc2ccccc2n1 | – | 21 | 6.6 | – |
| Cc1c(O)cccc1C(=O)N[C@@H](Cc1ccccc1)[C@H](O)CN1C[C@H]2CCCC[C@H]2C[C@H]1C(=O)NC(C)(C)C | 13 | 135 | 33 | – |
